# Test results reported in article PMC7486406, “A flavin-dependent monooxygenase catalyzes the initial step in cyanogenic glycoside synthesis in ferns” (Communications Biology, 2020).
# B1: Pteridium aquilinum fern oxime synthase 1 (PaqFOS1), recombinant with N-terminal 6xHis tag (enzyme, UniProt A0A7H1KPE2 1-543, looked up)
# chain: MAPNVPSAMYTTCLPERTALQEKLSGDRAALAARVCIVGAGVTGLCACKHLLQHGVESVVLEMQTGVGGVWRNTFSSTKLQTPRDAFQYSDFLWPPGTPRLPSHAQVLDYLESYARKFQVLERIVFNCRVLEVRRLDLEGPPPVSAFQKLPANAKWAVRVQQGSADLTQLDAEWLYFEYVLVCVGHYGDIAKTPKFAVPSKGPQAFHGKVLHSLDYSKLDEAATKKLLTGKRVIVVGSRKSALDAVMEASNSNRGPDGKPVTLLFRTPHWVIAHHFFYGIPMSYMTSRFSQLLVPQPGGGSTLHDIISAALSPLRWALSKALEFYLLSTLPLAEHGFVPNQNIFEEFKSCKLTLLPEHFFDYVKEGHIKLQKTSTWCFSSNGVTLPNGDELEADVIILCTGYEGERKIKSLLGTSFEDILQENDSSIPLYRGVLPPRIPNMAILGFQESYSNLFSAEMSARWVAYWIAGKIALPNKEIMEMEAYKWLRNTKPFMTINDKTCVNTTALQLADQMCRDMGWNSRRKKSLLQEIFAPYGNMDYKDE
# notes: identical to the 543 aa ORF of Pa22758 except for a single amino acid substitution; calculated mass 62.5 kDa; codon optimized for E. coli; No removal of the His tag is described; also called Paq18302; Paq18302 FMO
# B2: Arabidopsis thaliana flavin-dependent monooxygenase 1 (AtFMO1), recombinant with upstream 6xHis tag (enzyme, A. thaliana, UniProt Q9LMA1 1-530, looked up)
# chain: MASNYDKLTSSRVAIIGAGVSGLAAAKNLVHHNPTVFEASDSVGGVWRSCTYETTKLQSARVDYEFSDFPWPNNRDDTTFPPYLEILDYLESYAKHFDLLKFMKFGSKVIEVRFIGDGETPQMVDLGAYGNLLPGKPVWEVAVQIGDSGDIQWHAFEFVVVCTGKYGDVPRIPAFPAKKGPEMFQGKVMHSMDYCKLEKEEASTLLSGKKVAVIGFKKSAIDLALESALANQGEGGKACTMVVRTTHWGIPHYWVWGLPFFLFYSSRASQFLHDRPNQSFLRTLFCLLFSLLRAVVSKFIESYVLWKLPLEKYGLKPNHSFEEDYASCQMAIIPENFFEEADKGMIRFKKSSKWWFYEEGIVFEDGTTLEADVVILATGYDGKKKLKAIVPEPFRTWLEFPSGVMPLYRGTIHPLIPNMGFVGYVQSSSNLHTSELRSMWLSRLVDEKFRLPSKEKMLDQFLKEMEVTRNSSRFYKRHCISTFSIQHADDMCNDMGLNPWRKSNFLLEAFSPYGSQDYRLGQEEKEDMTA
# notes: AtFMO1 from Arabidopsis thaliana (Q9LMA1), codon optimized for E. coli; The methods describe the isolation for PaqFOS1 only; AtFMO1 is said to have been expressed and isolated in parallel; source: E. coli BL21(DE3)-R3, pET-30a(+), expressed and isolated in parallel to PaqFOS1
# What was measured:
# PaqFOS1 [1] = target: T1, PaqFOS1 (Pteridium aquilinum, UniProt A0A7H1KPE2); assay: absorbance spectrometry; SEC monitored at […] nm; assay type: binding; conditions: cofactor of the isolated protein; 50 mM HEPES pH 7.5, 150 mM NaCl, 0.5 mM TCEP
# T1 construct: gene FOS1; full-length, N-terminal 6xHis, codon-optimised, pET-30a(+), E. coli BL21(DE3)-R3; methods print contig as Paq18305
# PaqFOS1 [2] = target: T1, PaqFOS1; assay: absorbance spectrometry; SEC monitored at […] nm; assay type: binding; conditions: cofactor of the isolated protein; 50 mM HEPES pH 7.5, 150 mM NaCl, 0.5 mM TCEP; remark: listed apart in the source
# [3] = target: the molecule itself; assay: SEC; HiLoad 16/60 Superdex 200 calibrated with a high molecular weight kit (43 to 669 kDa); 50 mM HEPES pH 7.5, 150 mM NaCl, 0.5 mM TCEP; after His-Trap purification; self-association (dimer)
Molecule,stoichiometry N [3],further results
Cc1cc2nc3c(=O)[nH]c(=O)nc-3n(C[C@H](O)[C@H](O)[C@H](O)COP(=O)(O)OP(=O)(O)OC[C@H]3O[C@@H](n4cnc5c(N)ncnc54)[C@H](O)[C@@H]3O)c2cc1C [FAD],–,absorbance spectrometry; SEC monitored at 450 nm (PaqFOS1 [1]): The isolated PaqFOS1 protein binds the cofactors FAD and NADPH as demonstrated by absorbance spectrometry
NC(=O)C1=CN([C@@H]2O[C@H](COP(=O)(O)OP(=O)(O)OC[C@H]3O[C@@H](n4cnc5c(N)ncnc54)[C@H](OP(=O)(O)O)[C@@H]3O)[C@@H](O)[C@H]2O)C=CC1 [NADPH],–,absorbance spectrometry; SEC monitored at 254 nm (PaqFOS1 [2]): The isolated PaqFOS1 protein binds the cofactors FAD and NADPH as demonstrated by absorbance spectrometry
B1,2,–
B2,2,–
